Test results: patent US7858640B2, “Quinolines and their therapeutic use” (Pulmagen Therapeutics (Asthma) Limited, priority 2005, dated 2010)

Legend:
[1] = molecular target: T1, CRTH2 receptor (Homo sapiens, UniProt Q9Y5Y4); assay: Functional assay: calcium mobilisation; format: cell-based; parameters: expressed in transfected cells; details: CHO-K1 cells co-expressing CRTH2 receptor and Gα16; antagonism of PGD2 at its EC80
T1 sequence (Q9Y5Y4 1-395): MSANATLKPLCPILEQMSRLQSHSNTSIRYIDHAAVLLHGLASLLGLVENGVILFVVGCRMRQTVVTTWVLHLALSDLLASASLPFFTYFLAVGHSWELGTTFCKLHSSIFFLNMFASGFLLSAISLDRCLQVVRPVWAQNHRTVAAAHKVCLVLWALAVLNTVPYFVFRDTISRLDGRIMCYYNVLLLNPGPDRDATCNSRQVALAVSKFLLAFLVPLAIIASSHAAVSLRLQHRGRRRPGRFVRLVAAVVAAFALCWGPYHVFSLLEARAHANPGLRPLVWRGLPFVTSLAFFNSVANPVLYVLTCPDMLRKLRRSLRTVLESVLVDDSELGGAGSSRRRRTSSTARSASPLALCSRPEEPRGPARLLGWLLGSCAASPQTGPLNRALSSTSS
Method: Functional Assay: Calcium Mobilisation
Stable CHO-K1 cells co-expressing the CRTH2 receptor and the G-protein Gα16 are seeded (40,000 cells per well in a plating volume of 75 μL in F-12 Hams supplemented with 1% foetal bovine serum) into collagen-coated 96-well, plates 24 hours prior to the assay. The cells are then loaded with a fluorescence-imaging plate reader (FLIPR) calcium kit dye (Calcium 3 kit, Molecular Devices Ltd) containing 5 mM final concentration of probenecid and incubated at 37° C. for 1 hour in a 5% CO2 atmosphere. The fluorescence emission caused by intracellular calcium mobilization elicited by the PGD2 at the CRTH2 receptor is determined with a FLEXstation benchtop scanning and integrated fluid transfer workstation (Molecular Devices Ltd). To detect antagonists and determine compound IC50, compounds are pre-incubated at varying concentrations with the loaded cells for 15 minutes at 37° C., 5% CO2, prior to the addition of the agonist at its EC80 value. Compounds and agonist are added in Hanks balanced salt solution containing 20 mM HEPES and 0.1% BSA). The fractional response values for each well are calculated by subtracting the basal response from the peak response. Results are calculated as the mean of triplicate wells using Excel and XLfit (Microsoft).

[2] = molecular target: T1, CRTH2 receptor; assay: Radioligand binding assay ([3H]-PGD2 displacement, SPA); parameters: expressed in transfected cells; host or cells: HEK cell membranes; details: HEK cell membranes expressing the CRTH2 receptor, 1 nM [3H]-PGD2; Ki from IC50 by Cheng-Prusoff
Method: Radioligand Binding Assay
The receptor binding assay is performed in a final volume of 200 μL binding buffer [10 mM BES (pH 7.4), 1 mM EDTA, 10 mM manganese chloride, 0.01% BSA] and 1 nM [^3H]-PGD2 (Amersham Biosciences UK Ltd). Ligands are added in assay buffer containing a constant amount of DMSO (1% by volume). Total binding is determined using 1% by volume of DMSO in assay buffer and non-specific binding is determined using 10 μM of unlabeled PGD2 (Sigma). Human embryonic kidney (HEK) cell membranes (3.5 μg) expressing the CRTH2 receptor are incubated with 1.5 mg wheatgerm agglutinin SPA beads and 1 nM [^3H]-PGD2 (Amersham Biosciences UK Ltd) and the mixture incubated for 3 hours at room temperature. Bound [^3H]-PGD2 is detected using a Microbeta TRILUX liquid scintillation counter (Perkin Elmer). Compound IC50 value is determined using a 6-point dose response curve in duplicate with a semi-log compound dilution series. IC50 calculations are performed using Excel and XLfit (Microsoft), and this value is used to determine a Ki value for the test compound using the Cheng-Prusoff equation.

Cc1nc2c(Cl)ccc(CC(=O)O)c2c(C)c1Sc1ccc(Cl)cc1 [Example 12, [8-chloro-3-(4-chlorophenylsulfanyl)-2,4-dimethylquinolin-5-yl]acetic Acid]
IC50 [1]: < 100 nM | Ki [2]: < 100 nM

Cc1nc2c(Cl)ccc(OCC(=O)O)c2c(C)c1Cc1ccc(S(C)(=O)=O)cc1 [Example 20, [8-chloro-3-(4-methanesulfonylbenzyl)-2,4-dimethylquinolin-5-yloxy]acetic Acid]
IC50 [1]: < 1000 nM | Ki [2]: < 100 nM

Cc1nc2c(Cl)ccc(-c3nnn[nH]3)c2c(C)c1Cc1ccc(Cl)cc1 [Example 42, 8-chloro-3-(4-chlorobenzyl)-2,4-dimethyl-5-(1H-tetrazol-5-yl)quinoline]
IC50 [1]: < 1000 nM | Ki [2]: < 10000 nM

Cc1nc2c(Cl)ccc(OCC(=O)O)c2c(OC(F)F)c1Cc1ccc(F)cc1 [Example 18, [8-chloro-4-difluoromethoxy-3-(4-fluorobenzyl)-2-methylquinolin-5-yloxy]acetic acid]
IC50 [1]: < 100 nM | Ki [2]: < 100 nM

Cc1nc2c(Cl)ccc(CC(=O)O)c2c(OC(F)F)c1Cc1ccc(Cl)cc1 [Example 25, [8-chloro-3-(4-chlorobenzyl)-4-difluoromethoxy-2-methylquinolin-5-yl]acetic acid]
Ki [2]: < 1000 nM

CCc1nc2c(F)ccc(OCC(=O)O)c2c(OC(F)F)c1Cc1ccc(F)cc1Cl [Example 58, [3-(2-chloro-4-fluorobenzyl)-4-difluoromethoxy-2-ethyl-8-fluoroquinolin-5-yloxy]acetic Acid]
Ki [2]: < 100 nM

Cc1nc2c(Cl)ccc(OCc3nnn[nH]3)c2c(C)c1Cc1ccc(Cl)cc1 [Example 23, 8-chloro-3-(4-chlorobenzyl)-2,4-dimethyl-5-(1H-tetrazol-5-ylmethoxy)quinoline]
Ki [2]: < 10000 nM

Cc1c(Cc2ccc(F)cc2)c(OC(C)C)nc2c(Cl)ccc(OCC(=O)O)c12 [Example 31, [8-chloro-3-(4-fluorobenzyl)-2-isopropoxy-4-methylquinolin-5-yloxy]acetic Acid]
Ki [2]: < 1000 nM

CCc1nc2c(Cl)ccc(OCC(=O)O)c2c(C)c1Cc1ccc(Cl)cc1 [Example 17, [8-chloro-3-(4-chlorobenzyl)-2-ethyl-4-methylquinolin-5-yloxy]acetic Acid]
Ki [2]: < 100 nM

CCS(=O)(=O)c1ccc(Cc2c(OC(F)F)nc3c(F)ccc(OCC(=O)O)c3c2C)cc1 [Example 61, [2-difluoromethoxy-3-(4-ethanesulfonylbenzyl)-8-fluoro-4-methylquinolin-5-yloxy]acetic Acid]
Ki [2]: < 100 nM

Cc1nc2c(F)ccc(OCC(=O)O)c2c(OC(F)F)c1Cc1ccc(Cl)cc1 [Example 27, [3-(4-chlorobenzyl)-4-difluoromethoxy-8-fluoro-2-methylquinolin-5-yloxy]acetic acid]
Ki [2]: < 100 nM
